Reference: US20010051374A1, “HIGH […] MO[…]” (priority 1997, published 2001)

System: 293 cells
Assay: Coamatic Factor VIII assay of supernatants of 293 cells infected with rAAV
Assay type: cell-based, human
Parameters: dose or concentration left out as unconfirmed
Details: etoposide added to medium of cells co-infected with rAAV-80L and rAAV-90H
Protocol: The heavy and light chain constructs, pKm201-80L and pKm201-90H, were packaged following standard procedures for the production of rAAV (Zhou et al. (1994) J. Exp. Med. 179:1867-1875). rAAV was purified as described (Wang et al. (1995) Proc. Natl. Acad. Sci. USA 92:12416-12420) and used to infect 293 cells plated in 6-well plates. Supernatants of infected cells were collected 48 h after infection and assayed for biologically active factor VIII by Coamatic Factor VIII (KabiVitrum, Stockholm), following the manufacturer's instructions. Normal human plasma (George King Bio-Medical, Inc., Overland Park, Kans.) was used to generate a standard curve. Cells were infected at a multiplicity of infection (MOI) of 6000 rAAV particles per cell. The experiment was done both with and without the addition of etoposide ([…]) to the medium. […] The amount of factor VIII was increased in the presence of etoposide.

Compound: COc1cc([C@@H]2c3cc4c(cc3[C@@H](O[C@@H]3O[C@@H]5CO[C@@H](C)O[C@H]5[C@H](O)[C@H]3O)[C@H]3COC(=O)[C@H]23)OCO4)cc(OC)c1O [etoposide]
- amount of factor VIII: increased
